Measured values reported in US11974990B2, “TXNIP-TRX complex inhibitors and methods of using the same” (City of Hope, priority 2018, dated 2024).
Read-outs that look alike come from different tables or passages of the source.

What was measured:
TXNIP mRNA = TXNIP mRNA expression (RT-PCR) in THP1 cells under 25 mM glucose; assay type: cell-based, human; details: THP1, 25 mM glucose, 5 uM compound, 72 h / three days (FIG. 13)
Procedure: FIGS. 9A-9B. FIG. 9A. […] THP1 cells were cultured in 25 mM glucose with the indicated concentrations of C1 for 72 h. Cell were collected for total RNA preparation. RT-PCR were performed and data shown are the mean+SEM from triplicates. Statistical analysis was performed using one-way ANOVA, *<0.0001. FIG. 9B. […] THP1 cells were cultured in 25 mM glucose and C1 (uM) as indicated for 72 hours and collected for total RNA preparation. RT-PCR was performed. Data shown are the mean+SEM from triplicates. Statistical analysis was performed using one-way ANOVA: *<0.02; **<0.0001.
FIG. 13. C1 analogs affects TXNIP mRNA expression in THP1 cells. THP1 cells were cultured in 25 mM glucose with 5 uM of compounds for 72 h. Total RNA was collected and RT-PCR was performed in triplicate and data shown are the mean+SEM. Statistical analysis was performed using one-way ANOVA: *<0.0001.
RNA extraction and quantitative RT-PCR. RNA was extracted using the Direct-zol™ RNA MiniPrep Plus (Zymo Research). […] Diluted cDNA was quantified using real-time PCR performed with Power SYBR Green qPCR MasterMix (Applied Biosystem) and 7500 real-time PCR system (Applied Biosystems). […]
RNA extraction and quantitative RT-PCR. […] Diluted cDNA was quantified using real-time PCR performed with Power SYBR Green qPCR MasterMix (Applied Biosystem) and 7500 real-time PCR system (Applied Biosystems). […]

TXNIP-TRX complex [1] = biological target: T1, TXNIP-TRX complex (Homo sapiens, UniProt Q9H3M7); assay: Co-IP using extracts from high glucose treated THP1 cells in the presence of compounds; assay type: biochemical; details: extracts of THP1 cells treated with 25 mM glucose 3 days; compounds added to extract (5 uM)
T1 construct: Co-immunoprecipitation (Co-IP) of TXNIP with TRX in THP 1 monocytes cells treated with compounds under high glucose condition; endogenous in cells; host or cells: THP1 human monocytes cultured in 25 mM glucose
T1 sequence (Q9H3M7 1-391): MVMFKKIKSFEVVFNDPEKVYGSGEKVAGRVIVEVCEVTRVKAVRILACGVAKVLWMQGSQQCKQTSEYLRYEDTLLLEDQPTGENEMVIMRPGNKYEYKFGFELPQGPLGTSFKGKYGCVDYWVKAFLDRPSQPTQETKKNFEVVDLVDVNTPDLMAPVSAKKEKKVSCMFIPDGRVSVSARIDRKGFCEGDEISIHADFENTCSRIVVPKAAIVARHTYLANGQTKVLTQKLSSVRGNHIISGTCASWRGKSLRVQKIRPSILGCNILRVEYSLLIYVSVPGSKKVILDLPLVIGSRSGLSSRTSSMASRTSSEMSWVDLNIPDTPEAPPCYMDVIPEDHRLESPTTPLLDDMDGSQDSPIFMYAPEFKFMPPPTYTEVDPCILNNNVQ
Procedure: Assay 2: Co-IP using extracts from THP 1 cells treated high glucose and in the presence of compounds. In this assay, TXNIP is already highly expressed (because the cells are treated with HG), we assume there is high concentration of TXNIP/TRX complexes in the cell extract. Co-IPs were done in these extracts through adding TRX antibody and compounds. If a compound is able to break the (pre-formed) TXNIP/TRX complex, there will be a reduced signal (band intensity) in the assay.
Co-IP with THP1 high glucose treated extract in the presence of the compounds. THP1 cells were treated with 25 mM glucose for 3 days, the cell extract were prepared. Them 300 ul extract were used for TP. Compounds were added to 5 uM Co-IP were followed according to the Co-IP protocol.
(§1) 1. Transfer the cultured cells from the culture dish to a 15-mL conical tube. 2. Centrifuge at 500×g for 2 min at 4° C. and remove the supernatant. 3. Wash with ice-cold PBS and centrifuge at 500×g for 2 min at 4° C. Remove the supernatant. 4. Repeat Step 3 twice.
5. Resuspend the cell pellet in ice-cold cell lysis buffer (1 mL per 1×10^7 cells) and incubate on ice for 10 min. 6. […]
(§2) Note: Pre-clearing the lysate is recommended to reduce the non-specific binding. However, if the protein is detected by western blotting, pre-clearing may not be necessary unless a contaminating protein is interfering with visualization of the protein of interest. […]

TXNIP-TRX complex [2] = biological target: T1, TXNIP-TRX complex; assay: Co-IP of TXNIP with TRX in THP1 monocytes treated with compounds under high glucose; assay type: cell-based; details: THP1 cells, compounds added to cells in culture overnight, glucose to 25 mM, 72-96 h; anti-TRX IP
Procedure: FIGS. 4A-4B. Co-IP with anti-TRX in THP 1 cells treated with compounds under high glucose condition. THP1 cells were treated by 10 uM compounds over night, then glucose was added up to 25 mM. The cells were cultured for 72-96 h. Cell extracts were prepared using cell extract buffer (Thermo Fisher Scientific) and Co-IP were performed with mouse anti-TRX (abcam).
Assay 1: Co-immunoprecipitation (Co-IP) of TXNIP with TRX in THP 1 monocytes cells treated with compounds under high glucose condition. In this assay, we looked for compounds that can interfere with the interaction between TXNIP and TRX in THP-1 monocytes treated with HG. So here compounds are added to cells in culture. […] So we picked the candidates only if the results are repeatable.
Co-IP with compounds treated THP1 under high glucose condition. THP1 cells were treated with compounds (2.5 uM) overnight and glucose was add to 25 mM and culture for 3-5 days, then coIP were carried using co-IP protocol.
as §1
5. Resuspend the cell pellet in ice-cold cell lysis buffer (1 mL per 1×10^7 cells) and incubate on ice for 10 min. 6. Sonicate cells in ice bath three times for 5 second pulses each. 7. Centrifuge at 13,000×g at 4° C. for 10 min, and transfer the supernatant to a fresh tube. Store the tube on ice for further use, or for long storage at −80° C.
8. Resuspend the magnetic beads by pipetting up and down for several times. 9. Transfer 20 μL of bead slurry to a fresh tube. Place the tube in a magnetic separation rack […]. Carefully remove the supernatant once the solution is clear. 10. […]
as §2

TXNIP = details: as reported in the literature, cited from earlier work

CC(=O)Nc1ccc(NC(=O)C(C)N2C(=O)c3ccncc3C2=O)cc1 (centres unmarked) [Compound A31]
TXNIP mRNA expression (TXNIP mRNA): displayed significant inhibitory effects on TXNIP mRNA expression

CN(C)C(=N)N=C(N)N [metformin, reference compound]
effect on pre-formed TXNIP/TRX complex (co-IP band intensity) (TXNIP-TRX complex [1]): does not have any effect on TXNIP/TRX complex
HG-induced TXNIP-TRX co-IP band intensity (TXNIP-TRX complex [2]): reduces the intensity of the band showing TXNIP-TRX binding
TXNIP expression (TXNIP): reduce TXNIP expression
TXNIP expression (TXNIP; listed as Metformin): can reduce the expression of TXNIP through the AMPK pathway
